± gives the uncertainty stated by the source.
Assay: xn = mol fraction of the nth substance listed

O=[N+]([O-])[O-].O=[N+]([O-])[O-].[Ba+2] + O
viscosity [mPa·s], 100 kPa
Settings	x1 = 0.0003	x1 = 0.001	x1 = 0.003	x1 = 0.004	x1 = 0.006
298.15 K	0.888 ± 0.035	0.9055 ± 0.036	0.9235 ± 0.036	0.943 ± 0.037	0.965 ± 0.038
323.15 K	0.5475 ± 0.022	0.562 ± 0.022	0.5775 ± 0.023	0.59 ± 0.023	0.603 ± 0.024

[Cl-].[Cl-].[Cl-].[La+3] + O
viscosity [mPa·s]
Settings	293.15 K	298.15 K	303.15 K	308.15 K	318.15 K
100 kPa, x1 = 0.000538	1.026 ± 0.012	0.9124 ± 0.01	0.8179 ± 0.0095	0.7374 ± 0.0086	–
100 kPa, x1 = 0.000907	1.037 ± 0.012	0.922 ± 0.011	0.8265 ± 0.0096	0.7452 ± 0.0087	–
100 kPa, x1 = 0.001802	–	0.9485 ± 0.011	0.8506 ± 0.0098	0.7674 ± 0.0089	–
100 kPa, x1 = 0.003595	1.12 ± 0.013	0.9971 ± 0.011	0.8947 ± 0.01	0.8106 ± 0.0094	–
100 kPa, x1 = 0.005372	–	–	0.9462 ± 0.011	0.857 ± 0.0099	–
100 kPa, x1 = 0.007147	–	–	–	0.9116 ± 0.01	–
100 kPa, x1 = 0.008936	–	–	1.076 ± 0.012	0.9725 ± 0.011	–
100 kPa, x1 = 0.0107	–	–	–	1.041 ± 0.012	–
101 kPa, x1 = 0.008899	–	–	1.075 ± 0.013	–	–
101.3 kPa, x1 = 0.0009	1.037 ± 0.022	0.9217 ± 0.02	0.8261 ± 0.018	0.7453 ± 0.016	0.618 ± 0.013
101.3 kPa, x1 = 0.0018	–	–	–	0.7687 ± 0.016	0.6382 ± 0.013
101.3 kPa, x1 = 0.00893	–	–	1.076 ± 0.023	0.9735 ± 0.021	0.8112 ± 0.017
101.3 kPa, x1 = 0.0177	1.818 ± 0.039	1.623 ± 0.034	1.46 ± 0.031	1.322 ± 0.028	1.102 ± 0.023
101.3 kPa, x1 = 0.02631	2.522 ± 0.054	2.246 ± 0.048	2.016 ± 0.043	1.824 ± 0.039	1.516 ± 0.032
101.3 kPa, x1 = 0.03478	3.611 ± 0.077	3.199 ± 0.068	2.857 ± 0.061	2.573 ± 0.054	2.12 ± 0.045
101.3 kPa, x1 = 0.0431	5.287 ± 0.11	4.642 ± 0.099	4.114 ± 0.088	3.678 ± 0.078	2.992 ± 0.063
101.3 kPa, x1 = 0.05127	7.977 ± 0.17	6.922 ± 0.15	6.069 ± 0.13	5.371 ± 0.11	4.29 ± 0.091

CC(Cl)(Cl)Cl + O=C1CCCCC1
298.15 K, 101.33 kPa
Settings	viscosity [mPa·s]
x1 = 0.053	1.896 ± 0.017
x1 = 0.099	1.812 ± 0.017
x1 = 0.151	1.725 ± 0.016
x1 = 0.252	1.568 ± 0.015
x1 = 0.352	1.43 ± 0.013
x1 = 0.452	1.305 ± 0.012
x1 = 0.551	1.192 ± 0.011
x1 = 0.6	1.141 ± 0.011
x1 = 0.651	1.089 ± 0.01
x1 = 0.7	1.041 ± 0.01
x1 = 0.8	0.9504 ± 0.0092
x1 = 0.861	0.8988 ± 0.0087

Source: the CheMixHub viscosity set
